Measurements as given in patent US11331299B2, “Medicinal use of serrulatane diterpenes” (The University of Sydney, priority 2016, dated 2022).
Read-outs that look alike come from different tables or passages of the source.

How the values were obtained:
[1] = target: T1, KAT2A (GCN5L2) (h) bromodomain (Homo sapiens, UniProt Q92830); assay: Epigenetic binding assay, Bromodomain; conditions: for inhibition at 10 µM: read-out: % Inhibition of Control Specific Binding
T1 construct: Bromodomain
T1 sequence (Q92830 728-832 limits assumed): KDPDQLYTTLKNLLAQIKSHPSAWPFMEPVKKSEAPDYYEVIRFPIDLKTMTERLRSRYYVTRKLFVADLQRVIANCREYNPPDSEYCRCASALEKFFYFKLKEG

TAF1(1) (h) bromodomain = target: T2, TAF1(1) (h) bromodomain (Homo sapiens, UniProt P21675); assay: Epigenetic binding assay, Bromodomain; conditions: 10 μM; read-out: % Inhibition of Control Specific Binding
T2 construct: Bromodomain
T2 sequence (P21675 1397-1505 limits assumed): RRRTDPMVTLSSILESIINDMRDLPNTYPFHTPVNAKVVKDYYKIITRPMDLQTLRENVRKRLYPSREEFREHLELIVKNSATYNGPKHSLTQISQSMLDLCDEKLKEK

BRD3(2) (h) bromodomain = target: T3, BRD3(2) (h) bromodomain (Homo sapiens, UniProt Q15059); assay: Epigenetic binding assay, Bromodomain; conditions: 10 μM; read-out: % Inhibition of Control Specific Binding
T3 construct: Bromodomain
T3 sequence (Q15059 306-415 limits assumed): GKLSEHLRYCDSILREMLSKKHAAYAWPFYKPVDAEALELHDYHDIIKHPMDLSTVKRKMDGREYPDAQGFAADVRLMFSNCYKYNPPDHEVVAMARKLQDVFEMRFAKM

CBX1 (h) chromodomain = target: T4, CBX1 (h) chromodomain (Homo sapiens, UniProt P83916); assay: Epigenetic binding assay, Chromodomain; conditions: read-out: % Inhibition of Control Specific Binding
T4 construct: Recognition and specificity determinants of the human cbx chromodomains; Eurofins CEREP (France), contract laboratory
T4 sequence (P83916 21-79 limits assumed): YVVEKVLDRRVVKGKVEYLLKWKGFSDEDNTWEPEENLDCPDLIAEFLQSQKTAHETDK

CBX4 (h) chromodomain = target: T5, CBX4 (h) chromodomain (Homo sapiens, UniProt O00257); assay: Epigenetic binding assay, Chromodomain; conditions: read-out: % Inhibition of Control Specific Binding
T5 construct: Recognition and specificity determinants of the human cbx chromodomains; Eurofins CEREP (France), contract laboratory
T5 sequence (O00257 11-69 limits assumed): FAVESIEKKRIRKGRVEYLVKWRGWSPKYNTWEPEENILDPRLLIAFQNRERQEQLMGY

SETD7 (h) = target: T6, SETD7 (h) (Homo sapiens, UniProt Q8WTS6); assay: Epigenetic enzyme assay, Methyltransferases (MTs); format: biochemical; conditions: for inhibition at 10 µM: read-out: % Inhibition of Control Values
T6 sequence (Q8WTS6 1-366): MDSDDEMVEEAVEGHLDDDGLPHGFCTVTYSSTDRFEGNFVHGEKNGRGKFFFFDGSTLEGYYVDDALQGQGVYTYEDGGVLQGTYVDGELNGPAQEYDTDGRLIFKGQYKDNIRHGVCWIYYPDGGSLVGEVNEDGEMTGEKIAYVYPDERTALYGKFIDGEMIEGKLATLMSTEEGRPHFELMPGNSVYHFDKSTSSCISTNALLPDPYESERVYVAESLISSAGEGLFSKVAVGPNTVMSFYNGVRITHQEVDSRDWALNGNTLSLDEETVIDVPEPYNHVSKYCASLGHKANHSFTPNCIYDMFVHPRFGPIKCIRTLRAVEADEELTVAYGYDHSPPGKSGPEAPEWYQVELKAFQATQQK

[2] = target: PIM1(h) (histone H3 full length substrate) (Homo sapiens, UniProt P11309); assay: Epigenetic enzyme assay, Kinases; format: biochemical; conditions: read-out: % Inhibition of Control Values
Sequence of PIM1(h) (histone H3 full length substrate) (P11309 whole entry): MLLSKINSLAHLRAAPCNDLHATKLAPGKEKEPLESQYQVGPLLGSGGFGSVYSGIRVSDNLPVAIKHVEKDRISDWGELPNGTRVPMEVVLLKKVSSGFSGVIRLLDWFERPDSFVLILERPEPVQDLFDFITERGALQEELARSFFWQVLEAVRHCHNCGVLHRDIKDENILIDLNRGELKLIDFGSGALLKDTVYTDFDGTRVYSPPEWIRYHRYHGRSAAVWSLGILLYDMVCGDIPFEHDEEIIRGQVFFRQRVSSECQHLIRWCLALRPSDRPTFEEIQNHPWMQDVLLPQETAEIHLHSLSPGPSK

Chemokine CCR2B = target: T7, Chemokine CCR2B (Homo sapiens, UniProt P41597); assay: Chemokine CCR2B radio ligand binding; conditions: assay year 2015, read-out: % Control Response
T7 construct: expressed in transfected cells; host or cells: CHO-K1 cells
T7 sequence (P41597 1-360 isoform P41597-2): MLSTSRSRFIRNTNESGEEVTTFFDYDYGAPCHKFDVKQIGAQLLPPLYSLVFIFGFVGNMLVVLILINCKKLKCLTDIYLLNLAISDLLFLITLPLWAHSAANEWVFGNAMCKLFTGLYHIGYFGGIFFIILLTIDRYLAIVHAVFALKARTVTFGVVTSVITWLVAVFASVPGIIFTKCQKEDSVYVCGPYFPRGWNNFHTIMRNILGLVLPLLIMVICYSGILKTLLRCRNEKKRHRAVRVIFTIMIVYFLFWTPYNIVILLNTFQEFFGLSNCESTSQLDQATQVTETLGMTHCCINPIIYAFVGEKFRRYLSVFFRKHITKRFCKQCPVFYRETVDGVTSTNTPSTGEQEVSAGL
Procedure: (§1) The in vitro pharmacological studies were conducted by Eurofins PanLab (Taiwan) using the parameters shown in Table 13 with respect to appropriate literature references.

Monoamine Oxidase MAO-B = target: T8, Monoamine Oxidase MAO-B (Homo sapiens, UniProt P27338); assay: Monoamine Oxidase MAO-B; format: biochemical; conditions: for remaining activity at 10 µM: assay year 2015, read-out: % Control Response
T8 construct: host or cells: Insect Hi5 cells
T8 sequence (P27338 1-520): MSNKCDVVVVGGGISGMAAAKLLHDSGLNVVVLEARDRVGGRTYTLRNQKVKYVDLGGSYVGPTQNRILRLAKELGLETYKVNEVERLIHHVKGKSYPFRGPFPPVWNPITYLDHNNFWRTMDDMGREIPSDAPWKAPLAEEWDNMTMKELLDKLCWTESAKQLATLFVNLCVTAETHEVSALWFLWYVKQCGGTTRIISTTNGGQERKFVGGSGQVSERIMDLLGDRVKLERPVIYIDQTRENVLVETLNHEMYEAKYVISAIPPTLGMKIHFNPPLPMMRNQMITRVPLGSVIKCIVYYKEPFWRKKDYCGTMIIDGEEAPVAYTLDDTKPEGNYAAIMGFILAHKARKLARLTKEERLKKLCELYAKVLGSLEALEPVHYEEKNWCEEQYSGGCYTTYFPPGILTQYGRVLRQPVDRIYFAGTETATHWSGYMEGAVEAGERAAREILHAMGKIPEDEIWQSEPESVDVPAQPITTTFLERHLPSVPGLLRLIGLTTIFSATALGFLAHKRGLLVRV
Procedure: as §1

RKO-AS45-1 = assay: OncoPanel cell proliferation assay (10-day); format: cell-based, human; conditions: for EC50 / GI50 / IC50: Homo sapiens, RKOAS451, RKO-AS45-1, Colon; for EC50: read-out: Cell Count EC50; for GI50: read-out: Cell Count GI50; for IC50: read-out: Cell Count IC50
SW480 = assay: OncoPanel cell proliferation assay (10-day); format: cell-based, human; conditions: for EC50 / GI50 / IC50: Homo sapiens, SW480, Colon; for EC50: read-out: Cell Count EC50; for GI50: read-out: Cell Count GI50; for IC50: read-out: Cell Count IC50
CYP2C9 = target: T9, CYP2C9 (Homo sapiens, UniProt P11712); assay: Cytochrome P450 Inhibition (CYP panel); format: in vitro ADME; conditions: human liver microsomes, probe diclofenac; for inhibition at 10 µM: read-out: % Inhibition of Control Values
T9 construct: Human liver microsomes; from tissue; host or cells: human liver microsomes
T9 sequence (P11712 whole entry): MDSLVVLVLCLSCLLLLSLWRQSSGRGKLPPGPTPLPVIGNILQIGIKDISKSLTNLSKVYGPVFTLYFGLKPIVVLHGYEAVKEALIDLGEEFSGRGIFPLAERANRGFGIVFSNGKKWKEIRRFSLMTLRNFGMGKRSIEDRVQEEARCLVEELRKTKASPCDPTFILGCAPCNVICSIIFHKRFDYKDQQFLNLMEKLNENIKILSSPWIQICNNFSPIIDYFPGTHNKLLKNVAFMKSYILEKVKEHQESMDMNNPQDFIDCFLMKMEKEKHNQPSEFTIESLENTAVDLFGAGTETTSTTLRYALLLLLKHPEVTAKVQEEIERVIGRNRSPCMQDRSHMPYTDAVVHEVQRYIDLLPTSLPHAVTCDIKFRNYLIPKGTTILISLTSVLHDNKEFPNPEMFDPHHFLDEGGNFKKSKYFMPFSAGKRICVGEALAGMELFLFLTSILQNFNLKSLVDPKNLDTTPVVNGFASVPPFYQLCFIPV

CYP2C19 = target: T10, CYP2C19 (Homo sapiens, UniProt P33261); assay: Cytochrome P450 Inhibition (CYP panel); format: in vitro ADME; conditions: human liver microsomes, probe omeprazole
T10 construct: Human liver microsomes; from tissue; host or cells: human liver microsomes
T10 sequence (P33261 whole entry): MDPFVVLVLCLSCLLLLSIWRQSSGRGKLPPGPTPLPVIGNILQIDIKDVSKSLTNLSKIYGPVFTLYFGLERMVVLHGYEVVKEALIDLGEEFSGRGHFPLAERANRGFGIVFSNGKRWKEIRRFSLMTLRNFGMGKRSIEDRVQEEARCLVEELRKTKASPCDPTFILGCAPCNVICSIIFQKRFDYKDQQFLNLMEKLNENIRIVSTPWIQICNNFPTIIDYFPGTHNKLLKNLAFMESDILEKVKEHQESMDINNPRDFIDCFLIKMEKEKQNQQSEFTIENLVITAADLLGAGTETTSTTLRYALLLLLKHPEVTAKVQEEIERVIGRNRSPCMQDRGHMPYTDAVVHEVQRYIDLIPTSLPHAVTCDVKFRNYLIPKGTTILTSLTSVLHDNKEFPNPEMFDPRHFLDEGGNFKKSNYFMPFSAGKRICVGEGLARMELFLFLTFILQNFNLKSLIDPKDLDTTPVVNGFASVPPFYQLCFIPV

[3] = CYP2C19 (omeprazole sub.), Human liver microsomes, read-out: % Inhibition of Control Values

CC(C)=CCC[C@H](CO)[C@@H]1CC[C@@H](C)c2c1cc(C)c(O)c2O [Compound 1, 7,8,18-trihydroxyserrulat-14-ene]
% Inhibition of Control Specific Binding ([1]; 10 μM): significant inhibitory activity | inhibition at 10 µM ([1]; 10 μM): 76% | IC50 ([1]; Table 9, inhibition/concentration-response curve, read-out: IC50): 3.9 µM | inhibition at 10 µM (TAF1(1) (h) bromodomain): 48% | inhibition at 10 µM (BRD3(2) (h) bromodomain): 35% | inhibition at 10 µM (CBX1 (h) chromodomain): 15% | inhibition at 10 µM (CBX4 (h) chromodomain): 25% | inhibition at 10 µM (SETD7 (h)): 12% | inhibition at 10 µM [2]: 22% | remaining activity at 10 µM (Chemokine CCR2B): 1% | % Control Response (Monoamine Oxidase MAO-B; 10 μM, assay year 2015): potent inhibitor | remaining activity at 10 µM (Monoamine Oxidase MAO-B): 75% | Relative cell count (%) Mean (RKO-AS45-1; 3.00E+00 microM): 7.6% | Relative cell count (%) Mean (RKO-AS45-1; 3.00E+01 microM): 0.1% | Relative cell count (%) Mean (RKO-AS45-1; 3.01E−01 microM): 90.0% | Relative cell count (%) Mean (RKO-AS45-1; 3.01E−02 microM): 86.2% | Relative cell count (%) Mean (RKO-AS45-1; 3.02E−03 microM): 83.7% | Relative cell count (%) Mean (RKO-AS45-1; 9.49E+00 microM): 0.1% | Relative cell count (%) Mean (RKO-AS45-1; 9.51E−01 microM): 72.1% | Relative cell count (%) Mean (RKO-AS45-1; 9.52E−02 microM): 80.5% | Relative cell count (%) Mean (RKO-AS45-1; 9.53E−03 microM): 88.3% | Relative cell count (%) Mean (RKO-AS45-1; 9.55E−04 microM): 95.4% | EC50 (RKO-AS45-1): 1.5 µM | GI50 (RKO-AS45-1): 1.5 µM | IC50 (RKO-AS45-1): 1.5 µM | EC50 (SW480): 1.21 µM | GI50 (SW480): 1.2 µM | IC50 (SW480): 1.21 µM | Relative cell count (%) Mean (SW480; SW480, 3.00E+00 microM): 4.1% | Relative cell count (%) Mean (SW480; SW480, 3.00E+01 microM): 0.4% | Relative cell count (%) Mean (SW480; SW480, 3.01E−01 microM): 93.5% | Relative cell count (%) Mean (SW480; SW480, 3.01E−02 microM): 99.5% | Relative cell count (%) Mean (SW480; SW480, 3.02E−03 microM): 116.5% | Relative cell count (%) Mean (SW480; SW480, 9.49E+00 microM): 0.2% | Relative cell count (%) Mean (SW480; SW480, 9.51E−01 microM): 69.9% | Relative cell count (%) Mean (SW480; SW480, 9.52E−02 microM): 94.1% | Relative cell count (%) Mean (SW480; SW480, 9.53E−03 microM): 103.7% | Relative cell count (%) Mean (SW480; SW480, 9.55E−04 microM): 111.8% | inhibition at 1 µM (CYP2C9): 5% | inhibition at 10 µM (CYP2C9): 77% | inhibition at 1 µM (CYP2C19; read-out: % inhibition): 25 to 37% | inhibition at 1 µM (CYP2C19; [3]): 37% | inhibition at 10 µM (CYP2C19; [3]): 90%

CC(C)=CCC[C@@H]1C(O)Oc2c(C)cc(O)c3c2[C@H]1CC[C@H]3C (stereo partly drawn) [Compound 2, 5,18-epoxyserrulat-14-en-8,18-diol]
inhibition at 10 µM ([1]; 10 μM): 19% | inhibition at 10 µM (TAF1(1) (h) bromodomain): 17% | inhibition at 10 µM (BRD3(2) (h) bromodomain): 25% | inhibition at 10 µM (CBX1 (h) chromodomain): 0% | inhibition at 10 µM (CBX4 (h) chromodomain): 29% | inhibition at 10 µM (SETD7 (h)): 16% | inhibition at 10 µM [2]: 11% | remaining activity at 10 µM (Chemokine CCR2B): -23% | remaining activity at 10 µM (Monoamine Oxidase MAO-B): 39% | EC50 (RKO-AS45-1): 9.64 µM | GI50 (RKO-AS45-1): 9.62 µM | IC50 (RKO-AS45-1): 9.64 µM | EC50 (SW480): 10.1 µM | GI50 (SW480): 9.93 µM | IC50 (SW480): 10.1 µM | inhibition at 1 µM (CYP2C9): 20% | inhibition at 10 µM (CYP2C9): 72% | inhibition at 1 µM (CYP2C19; read-out: % inhibition): 25 to 37% | inhibition at 1 µM (CYP2C19; [3]): 34% | inhibition at 10 µM (CYP2C19; [3]): 73%

Nc1ncnc2c1ncn2[C@@H]1O[C@H](CSCC[C@H](N)C(=O)O)[C@@H](O)[C@H]1O [SAH]
IC50 (SETD7 (h); read-out: Reference IC50): 24 µM

CC(C)=CCC[C@@H]1COc2c(C)cc(O)c3c2[C@H]1CC[C@H]3C [Compound 3, 5,18-epoxy-8-hydroxyserrulat-14-ene]
inhibition at 10 µM ([1]; 10 μM): 18% | inhibition at 10 µM (TAF1(1) (h) bromodomain): 17% | inhibition at 10 µM (BRD3(2) (h) bromodomain): 1% | inhibition at 10 µM (CBX1 (h) chromodomain): -1% | inhibition at 10 µM (CBX4 (h) chromodomain): 40% | inhibition at 10 µM (SETD7 (h)): -2% | inhibition at 10 µM [2]: 5% | remaining activity at 10 µM (Chemokine CCR2B): -10% | remaining activity at 10 µM (Monoamine Oxidase MAO-B): 18%

CC(C)=CCC[C@H](C)[C@@H]1CC[C@@H](C)c2c1cc(C)c(O)c2O [Compound 4, 7,8-dihydroxyserrulat-14-ene]
EC50 (RKO-AS45-1): 12.8 µM | GI50 (RKO-AS45-1): 12.8 µM | IC50 (RKO-AS45-1): 12.8 µM | EC50 (SW480): 12.3 µM | GI50 (SW480): 12.3 µM | IC50 (SW480): 12.3 µM | inhibition at 1 µM (CYP2C9): 31% | inhibition at 10 µM (CYP2C9): 91% | inhibition at 1 µM (CYP2C19; read-out: % inhibition): 25 to 37% | inhibition at 1 µM (CYP2C19; [3]): 25% | inhibition at 10 µM (CYP2C19; [3]): 78%
